As usually defined, the IC50 is the concentration that inhibits the measured activity by half. Read a low IC50 as inhibition by little substance.

≈ marks a conversion by molar mass, not a printed value. Where only a bound is given, the exact number is not on record here.

The assay relates to NSCLC. Description: Cytotoxicity against human NSCLC cells by MTT assay. Type of assay: functional, cell-based. A general note: Formazan colour is commonly taken as a measure of viable cells.
In the case of `CC1=C[C@H](c2c(O)cc(O)c(C(=O)CCc3ccccc3)c2O)[C@@H](C(C)C)CC1`, the IC50 is greater than 30 µg/mL.
With `CC1=C[C@H](c2c(O)c(C(=O)CCc3ccccc3)c(O)c([C@H]3C=C(C)CC[C@@H]3C(C)C)c2O)[C@@H](C(C)C)CC1`, the IC50 is greater than 30 µg/mL.
In the case of `CC1=C[C@H](c2c(O)cc(O)c(C(=O)CCc3ccccc3)c2O)[C@H](C(C)C)CC1` [LINDERATIN] it was 3.8 µg/mL (≈ 9.63 µM); in that of `CC1=C[C@H](c2c(O)c(C(=O)CCc3ccccc3)c(O)c([C@H]3C=C(C)CC[C@H]3C(C)C)c2O)[C@H](C(C)C)CC1` [NEOLINDERATIN], greater than 30 µg/mL.

For the origin of these results see ChEMBL document CHEMBL1158322, “New Terpenylated Dihydrochalcone Derivatives Isolated from Mitrella kentii” (J Nat Prod, 1997).
